In ChEMBL document CHEMBL1817669, “Design and pharmacological evaluation of PF-4840154, a non-electrophilic reference agonist of the TrpA1 channel” (Bioorg Med Chem Lett, 2011):
In brackets after ≈: the same amount, converted by molar mass. Activity calls are given as the source filed them. No cut-off for these calls is given here.

How the values were obtained:
[1] = target: Transient receptor potential cation channel subfamily A member 1 (Rattus norvegicus, UniProt Q6RI86); experiment: Agonist activity at rat TRPA1 channel expressed in HEK293 cells assessed as calcium influx measured at every 1 second for 60 seconds by fluorescence analysis; assay type: functional, cell-based
Transient receptor potential cation channel subfamily A member 1 (Rattus norvegicus, UniProt Q6RI86), sequence (Q6RI86 whole entry): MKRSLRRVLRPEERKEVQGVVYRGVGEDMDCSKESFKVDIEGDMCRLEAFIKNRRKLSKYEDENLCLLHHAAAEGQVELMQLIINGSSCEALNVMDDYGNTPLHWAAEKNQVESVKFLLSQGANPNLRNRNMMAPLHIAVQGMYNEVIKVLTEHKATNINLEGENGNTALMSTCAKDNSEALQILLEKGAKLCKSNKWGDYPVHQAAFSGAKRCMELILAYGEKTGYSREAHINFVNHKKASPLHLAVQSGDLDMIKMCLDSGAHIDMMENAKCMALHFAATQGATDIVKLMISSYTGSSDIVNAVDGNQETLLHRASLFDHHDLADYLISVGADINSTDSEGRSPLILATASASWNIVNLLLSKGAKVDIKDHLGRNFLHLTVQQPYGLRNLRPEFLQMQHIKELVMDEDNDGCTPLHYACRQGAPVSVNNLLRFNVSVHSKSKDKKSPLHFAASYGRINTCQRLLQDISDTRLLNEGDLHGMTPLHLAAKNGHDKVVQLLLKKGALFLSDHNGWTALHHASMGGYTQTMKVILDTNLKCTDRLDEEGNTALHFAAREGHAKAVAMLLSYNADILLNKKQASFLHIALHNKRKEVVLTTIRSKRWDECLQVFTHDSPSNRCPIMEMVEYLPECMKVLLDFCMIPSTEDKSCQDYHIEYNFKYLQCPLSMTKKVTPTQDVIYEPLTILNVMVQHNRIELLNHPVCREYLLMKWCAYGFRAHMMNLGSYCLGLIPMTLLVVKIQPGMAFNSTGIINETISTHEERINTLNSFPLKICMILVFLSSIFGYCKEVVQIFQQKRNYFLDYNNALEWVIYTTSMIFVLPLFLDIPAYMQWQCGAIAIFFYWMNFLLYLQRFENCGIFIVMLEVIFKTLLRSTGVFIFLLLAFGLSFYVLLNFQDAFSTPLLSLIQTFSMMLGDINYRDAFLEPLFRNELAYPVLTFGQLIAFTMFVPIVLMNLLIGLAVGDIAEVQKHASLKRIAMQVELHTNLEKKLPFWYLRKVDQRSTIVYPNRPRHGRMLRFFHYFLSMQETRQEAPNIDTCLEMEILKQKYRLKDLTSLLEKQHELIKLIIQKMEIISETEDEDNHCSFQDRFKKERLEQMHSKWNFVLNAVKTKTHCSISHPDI

[2] = target: Transient receptor potential cation channel subfamily A member 1 (Homo sapiens, UniProt O75762); experiment: Agonist activity at human TRPA1 channel expressed in HEK293 cells assessed as calcium influx measured at every 1 second for 60 seconds by fluorescence analysis; assay type: functional, cell-based
Transient receptor potential cation channel subfamily A member 1 (Homo sapiens, UniProt O75762), sequence (O75762 whole entry): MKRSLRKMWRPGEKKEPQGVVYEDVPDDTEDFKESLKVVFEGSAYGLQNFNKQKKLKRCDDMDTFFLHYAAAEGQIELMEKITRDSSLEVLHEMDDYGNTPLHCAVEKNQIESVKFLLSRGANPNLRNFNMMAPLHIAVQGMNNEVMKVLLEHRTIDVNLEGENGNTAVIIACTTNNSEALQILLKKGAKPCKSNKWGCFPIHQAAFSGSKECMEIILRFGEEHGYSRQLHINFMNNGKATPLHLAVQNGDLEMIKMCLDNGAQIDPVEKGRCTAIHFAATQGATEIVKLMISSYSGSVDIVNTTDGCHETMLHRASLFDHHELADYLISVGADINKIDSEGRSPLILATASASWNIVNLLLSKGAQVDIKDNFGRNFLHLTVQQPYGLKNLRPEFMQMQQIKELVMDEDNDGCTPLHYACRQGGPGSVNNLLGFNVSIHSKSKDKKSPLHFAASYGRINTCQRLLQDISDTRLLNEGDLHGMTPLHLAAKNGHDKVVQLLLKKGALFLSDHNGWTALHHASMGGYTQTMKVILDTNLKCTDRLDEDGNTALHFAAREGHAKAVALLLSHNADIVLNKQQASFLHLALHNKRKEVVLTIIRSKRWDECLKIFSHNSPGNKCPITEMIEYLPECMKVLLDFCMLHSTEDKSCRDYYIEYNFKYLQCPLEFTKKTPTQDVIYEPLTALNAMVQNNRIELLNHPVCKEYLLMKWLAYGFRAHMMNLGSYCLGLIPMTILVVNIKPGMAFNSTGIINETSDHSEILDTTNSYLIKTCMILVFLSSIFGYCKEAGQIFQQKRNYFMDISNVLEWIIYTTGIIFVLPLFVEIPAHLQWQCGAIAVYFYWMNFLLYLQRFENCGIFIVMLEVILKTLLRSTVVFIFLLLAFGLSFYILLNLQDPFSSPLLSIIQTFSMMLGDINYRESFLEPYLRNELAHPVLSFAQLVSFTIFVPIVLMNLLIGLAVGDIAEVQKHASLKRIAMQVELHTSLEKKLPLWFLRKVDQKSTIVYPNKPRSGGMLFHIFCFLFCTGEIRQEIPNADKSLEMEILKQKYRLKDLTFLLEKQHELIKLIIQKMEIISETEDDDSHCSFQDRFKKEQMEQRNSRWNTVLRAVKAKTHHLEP

[3] = target: Transient receptor potential cation channel subfamily A member 1 (Rattus norvegicus) (UniProt Q6RI86); experiment: Agonist activity at rat TRPA1 channel expressed in HEK293 cells assessed as calcium influx at 10 uM measured at every 1 second for 60 seconds by fluorescence analysis; assay type: functional, cell-based
Transient receptor potential cation channel subfamily A member 1 (Rattus norvegicus), sequence (Q6RI86 whole entry): as the sequence (Q6RI86 whole entry) above

[4] = Aqueous solubility of the compound at pH 7.4; assay type: physicochemical
[5] = Inhibition of sigma receptor at 1.1 uM
[6] = target: D(3) dopamine receptor (Homo sapiens) (UniProt P35462); experiment: Inhibition of dopamine D3 receptor at 1.9 uM
[7] = Inhibition of chloride channel at 1.5 uM
[8] = target: Sodium-dependent dopamine transporter (Homo sapiens) (UniProt Q01959); experiment: Inhibition of dopamine transporter at 1.6 uM
[9] = target: Sodium-dependent noradrenaline transporter (Homo sapiens) (UniProt P23975); experiment: Inhibition of noradrenaline transporter at 2.8 uM
[10] = target: Transient receptor potential cation channel subfamily V member 1 (Homo sapiens) (UniProt Q8NER1); experiment: Agonist activity at human TRPV1 receptor; assay type: functional
Transient receptor potential cation channel subfamily V member 1 (Homo sapiens), sequence (Q8NER1 whole entry): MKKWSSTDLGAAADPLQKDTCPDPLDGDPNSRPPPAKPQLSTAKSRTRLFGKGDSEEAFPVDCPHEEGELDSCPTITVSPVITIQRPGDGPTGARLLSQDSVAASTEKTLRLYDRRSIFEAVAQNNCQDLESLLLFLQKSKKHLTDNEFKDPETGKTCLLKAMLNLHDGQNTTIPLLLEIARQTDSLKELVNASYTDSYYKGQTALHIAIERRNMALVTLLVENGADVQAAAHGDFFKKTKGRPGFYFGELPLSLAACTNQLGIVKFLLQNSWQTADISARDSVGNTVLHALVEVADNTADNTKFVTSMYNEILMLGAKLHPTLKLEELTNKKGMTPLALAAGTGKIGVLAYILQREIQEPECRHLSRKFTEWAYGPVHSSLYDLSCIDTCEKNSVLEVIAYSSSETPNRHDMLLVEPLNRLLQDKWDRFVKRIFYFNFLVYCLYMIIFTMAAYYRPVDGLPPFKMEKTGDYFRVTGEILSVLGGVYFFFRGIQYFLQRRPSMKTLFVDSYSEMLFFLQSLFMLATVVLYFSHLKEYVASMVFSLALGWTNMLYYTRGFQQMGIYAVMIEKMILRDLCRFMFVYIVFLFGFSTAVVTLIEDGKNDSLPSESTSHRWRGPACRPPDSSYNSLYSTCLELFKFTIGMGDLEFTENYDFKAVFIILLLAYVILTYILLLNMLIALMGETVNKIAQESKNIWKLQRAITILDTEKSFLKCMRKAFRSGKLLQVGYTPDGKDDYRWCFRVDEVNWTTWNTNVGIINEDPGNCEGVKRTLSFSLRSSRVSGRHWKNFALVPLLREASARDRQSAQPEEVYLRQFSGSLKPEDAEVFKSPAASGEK

[11] = target: Transient receptor potential cation channel subfamily V member 1 (Homo sapiens) (UniProt Q8NER1); experiment: Antagonist activity at human TRPV1 receptor; assay type: functional
[12] = target: Transient receptor potential cation channel subfamily V member 4 (Homo sapiens) (UniProt Q9HBA0); experiment: Agonist activity at human TRPV4 receptor; assay type: functional
Transient receptor potential cation channel subfamily V member 4 (Homo sapiens), sequence (Q9HBA0 whole entry): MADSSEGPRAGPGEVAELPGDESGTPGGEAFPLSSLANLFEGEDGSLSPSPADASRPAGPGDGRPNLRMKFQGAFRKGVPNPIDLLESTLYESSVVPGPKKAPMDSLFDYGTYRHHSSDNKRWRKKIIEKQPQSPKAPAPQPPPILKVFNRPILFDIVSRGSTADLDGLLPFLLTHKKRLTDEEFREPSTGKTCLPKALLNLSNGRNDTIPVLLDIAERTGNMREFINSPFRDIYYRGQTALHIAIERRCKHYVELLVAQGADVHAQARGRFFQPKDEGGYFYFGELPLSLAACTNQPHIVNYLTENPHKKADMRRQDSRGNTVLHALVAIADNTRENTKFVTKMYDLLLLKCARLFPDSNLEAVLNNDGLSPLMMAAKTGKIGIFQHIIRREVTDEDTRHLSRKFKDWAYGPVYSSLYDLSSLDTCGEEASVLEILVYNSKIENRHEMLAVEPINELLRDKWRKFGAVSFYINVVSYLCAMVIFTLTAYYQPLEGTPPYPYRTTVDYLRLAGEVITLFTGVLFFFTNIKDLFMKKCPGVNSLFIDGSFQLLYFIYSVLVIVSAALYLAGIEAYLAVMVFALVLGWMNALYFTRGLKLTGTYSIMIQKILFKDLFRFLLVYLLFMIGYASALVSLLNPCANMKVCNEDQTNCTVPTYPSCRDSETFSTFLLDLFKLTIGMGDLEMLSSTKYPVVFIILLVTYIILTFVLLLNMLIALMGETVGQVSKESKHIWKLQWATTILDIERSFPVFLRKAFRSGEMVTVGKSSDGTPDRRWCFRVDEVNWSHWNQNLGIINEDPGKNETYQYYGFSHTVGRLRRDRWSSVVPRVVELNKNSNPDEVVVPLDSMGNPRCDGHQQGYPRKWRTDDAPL

[13] = target: Transient receptor potential cation channel subfamily V member 4 (Homo sapiens) (UniProt Q9HBA0); experiment: Antagonist activity at human TRPV4 receptor; assay type: functional
[14] = target: Transient receptor potential cation channel subfamily M member 8 (Homo sapiens) (UniProt Q7Z2W7); experiment: Agonist activity at human TRPM8 receptor; assay type: functional
Transient receptor potential cation channel subfamily M member 8 (Homo sapiens), sequence (Q7Z2W7 whole entry, looked up): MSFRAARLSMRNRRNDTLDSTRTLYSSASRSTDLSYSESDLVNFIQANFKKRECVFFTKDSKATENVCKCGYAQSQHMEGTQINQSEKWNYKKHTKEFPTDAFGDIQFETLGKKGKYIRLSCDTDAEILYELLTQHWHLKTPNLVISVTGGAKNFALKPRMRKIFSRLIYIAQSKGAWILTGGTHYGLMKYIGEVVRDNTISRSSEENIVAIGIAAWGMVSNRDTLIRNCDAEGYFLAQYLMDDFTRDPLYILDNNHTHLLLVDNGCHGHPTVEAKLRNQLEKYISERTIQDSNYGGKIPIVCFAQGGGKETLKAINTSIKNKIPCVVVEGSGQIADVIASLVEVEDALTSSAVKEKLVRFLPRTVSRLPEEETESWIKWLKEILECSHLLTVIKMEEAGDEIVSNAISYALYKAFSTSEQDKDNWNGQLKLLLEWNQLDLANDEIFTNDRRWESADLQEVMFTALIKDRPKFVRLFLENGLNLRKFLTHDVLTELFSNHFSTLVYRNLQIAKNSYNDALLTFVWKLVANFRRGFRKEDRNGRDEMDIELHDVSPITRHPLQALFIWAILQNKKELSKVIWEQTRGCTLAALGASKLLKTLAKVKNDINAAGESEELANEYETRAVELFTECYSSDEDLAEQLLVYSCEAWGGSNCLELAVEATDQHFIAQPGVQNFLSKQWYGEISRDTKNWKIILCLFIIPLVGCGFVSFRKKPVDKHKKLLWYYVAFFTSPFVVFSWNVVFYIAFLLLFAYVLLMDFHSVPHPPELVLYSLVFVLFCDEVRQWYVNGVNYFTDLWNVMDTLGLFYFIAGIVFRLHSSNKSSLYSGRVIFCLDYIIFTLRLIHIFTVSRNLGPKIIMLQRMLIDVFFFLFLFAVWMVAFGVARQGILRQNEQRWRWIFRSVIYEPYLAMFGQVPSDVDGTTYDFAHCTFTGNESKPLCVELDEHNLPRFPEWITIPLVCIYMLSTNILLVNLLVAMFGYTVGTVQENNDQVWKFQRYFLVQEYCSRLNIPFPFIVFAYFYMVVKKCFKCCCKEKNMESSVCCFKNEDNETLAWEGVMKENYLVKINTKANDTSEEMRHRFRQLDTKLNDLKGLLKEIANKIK

[15] = target: Transient receptor potential cation channel subfamily M member 8 (Homo sapiens) (UniProt Q7Z2W7); experiment: Antagonist activity at human TRPM8 receptor; assay type: functional
Mus musculus [16] = species on record: Mus musculus; experiment: Antinociceptive activity against formalin-induced inflammatory pain in Trpa1-positive CD1 mouse assessed as increase in time spent in paw licking at 30 nmol, intraplantar measured every 5 mins for 60 mins; assay type: functional, organism-based
Mus musculus [17] = species on record: Mus musculus; experiment: Antinociceptive activity against formalin-induced inflammatory pain in Trpa1-knock out CD1 mouse assessed as increase in time spent in paw licking at 30 nmol, intraplantar measured every 5 mins for 60 mins; assay type: functional, organism-based
Mus musculus [18] = experiment: Antinociceptive activity against formalin-induced inflammatory pain in Trpa1-positive CD1 mouse assessed as increase in time spent in paw licking at 30 nmol, intraplantar measured every 5 mins for 60 mins in pretreated with 100 mg/kg Trpa1 antagonist HC003031; assay type: functional, organism-based; set-up: dose 100 mg/kg

Structure (SMILES) | EC50 [1] [nM] | EC50 ([2]; hek293) | EC50 ([2]; read-out: EC50) [nM] | also measured
O=C(NCc1ccccc1)c1cnc(N2CCN(C(=O)c3ccccc3)CC2)nc1NC1CC1 | 5600 | Not Active |  | 
CC(C)CNc1nc(N2CCN(Cc3ccccc3)CC2)ncc1C(=O)NCc1ccccc1 | 175 |  | 79 | 
COCCNC(=O)c1cnc(N2CCN(Cc3ccccc3)CC2)nc1NCC(C)C | 581 | Not Active |  | 
O=C(NCc1ccccc1)c1cnc(N2CCN(Cc3ccccc3)CC2)nc1NC1CC1 | 468 | Not Active |  | 
CC(C)CNc1nc(N2CCN(Cc3ccccc3)CC2)ncc1C(=O)NCc1cccnc1 | 215 |  | 49 | 
O=C(NCc1ccccc1)c1cnc(N2CCN(CC3CCCOC3)CC2)nc1NC1CC1 (stereo not given) | 848 |  | 109 | 
CCCCN1CCN(c2ncc(C(=O)NCc3ccccc3)c(NC3CC3)n2)CC1 |  | Not Active |  | activation [3]: 30%
O=C(NCc1ccccc1)c1cnc(N2CCN(C(=O)c3c(F)cccc3F)CC2)nc1NC1CC1 | 186 |  | 27 | 
CC(C)CNc1nc(N2CCN(CC3CCCOC3)CC2)ncc1C(=O)NCc1ccccc1 (stereo not given) | 97 |  | 23 | solubility [4]: 6.4 µM (≈ 2.99 µg/mL); inhibition [5]: < 10%; inhibition [6]: < 10%; inhibition [7]: < 10%; inhibition [8]: < 10%; inhibition [9]: < 10%; Activity [10]: inactive; Activity [11]: inactive; Activity [12]: inactive; Activity [13]: inactive; Activity [14]: inactive; Activity [15]: inactive; Activity (Mus musculus [16]): Active; Activity (Mus musculus [17]): inactive; Activity (Mus musculus [18]): inactive
CC(C)CNc1nc(N2CCN(Cc3ccccc3)CC2)ncc1C(=O)NCc1ccccn1 | 2250 | Not Active |  | 
